Results taken from article PMC3901259, “Characterisation of the Metabolites of 1,8-Cineole Transferred into Human Milk: Concentrations and Ratio of Enantiomers” (Metabolites, 2013).

Experiments:
[1] = parameters: method as in doi:10.1002/cplu.201200253; details: urine after 100 mg 1,8-cineole; cited from earlier work
[2] = Determination of the ratios of enantiomers of chiral metabolites in human milk on chiral GC capillaries; assay type: in vivo; details: excluded from Table 3
Description: The separation of the chiral metabolites of 1,8-cineole was successfully achieved using different β- or γ-cyclodextrin-based stationary phases (Rt-bDEXsa, Rt-bDEXse, Rt-bDEXsm and Rt-yDEXsa) for gas chromatographic analysis. Table S1, in the supplementary material, lists the usable separation phases and the respective retention indices (determined according to van den Dool and Kratz) for each pair of enantiomers. It was therefore decided to use the following capillaries for the analysis of the human milk samples: Rt-bDEXsm for separation of 2,3-dehydro-, α2,3-epoxy-, 2-oxo-, 3-oxo- and 9-hydroxy-1,8-cineole, and Rt-yDEXsa for separation of α2-hydroxy-, α3-hydroxy- and β2-hydroxy-1,8-cineole, under the GC conditions described in the experimental section.
For GC-MS analyses, an Agilent MSD quadrupole system (GC 7890A with MSD 5975C, Agilent Technologies, Waldbronn, Germany) coupled with a CIS 4C (cooled injection system) and an MPS 2 auto-sampler (Gerstel GmbH & Co. KG, Duisburg, Germany) were used. Data collection and analysis were performed with the MSD ChemStation E.02.00.493 (Agilent Technologies, Inc.) software. Quantification experiments were carried out on DB-FFAP and DB-5 capillaries (30 m length, 0.25 mm inner diameter, 0.25 µm film thickness, Agilent J&W GC Columns, USA), and for monitoring of the ratio of enantiomers the chiral capillaries Rt-bDEXsa, Rt-bDEXse, Rt-bDEXsm and Rt-yDEXsa (30 m length, 0.32 mm inner diameter, 0.25 µm film thickness, Restek GmbH, Bad Homburg, Germany) were utilised. Pre-columns of uncoated, deactivated fused silica (0.53 mm inner diameter, 0.5 to 3.5 m length) were used to ensure that no potentially present low-volatile residues could contaminate the analytical capillaries. The temperature programme of the column oven was as follows: 40 °C for 2 min, 4 °C/min up to 170 °C, 40 °C/min up to 230 °C (Rt-DEX capillaries), 240 °C (DB-FFAP) and 250 °C (DB-5), respectively, and hold time at end temperature of 5 to 10 min. As carrier gas, helium was used at a flow rate of 1.3 mL/min (velocity 41.1 cm/s). Injection of 1 or 2 µL was performed by the auto-sampler.
For the separation of the pairs of enantiomers of the chiral metabolites of 1,8-cineole, four different capillaries (Rt-bDEXsa, Rt-bDEXse, Rt-bDEXsm, and Rt-yDEXsa) were evaluated for optimisation of the peak-to-peak resolution of the enantiomers by injecting a mixture of all the metabolites in a dichloromethane solution and by varying the heating rate. Besides the separation of each pair of enantiomers from each other, it was also important to confirm that no other metabolite coeluted with any one of the enantiomers, because the milk samples would most probably contain all metabolites. Moreover, the separation conditions for the mixture of reference substances were also tested on some human milk sample extracts and modified accordingly, where necessary, to avoid coelution with interfering matrix compounds.
For calculation of the ratio of enantiomers (that is, the relative abundance of each enantiomer to the not separated mixture of enantiomers), the peak area of each enantiomer was divided by the sum of the peak areas of both enantiomers and multiplied by 100. With the known concentrations of the chiral metabolites in each milk sample, the absolute concentration of each single enantiomer was also calculated by multiplying the concentration with the respective percentage.

[3] = Quantification of 1,8-cineole metabolites in human milk (SAFE, GC-MS, internal standard and matrix calibration) after oral intake of 100 mg 1,8-cineole; assay type: in vivo; details: for Absolute concentration in human milk: single determination
Description: Human milk samples were provided voluntarily by breastfeeding mothers after intake of the non-prescription pharmaceutical Soledum® (Klosterfrau Healthcare Group, Cologne, Germany). Before the beginning of the study, the participants were informed verbally, as well as in written form, about the study procedure and purpose and they were told that withdrawing from the study was possible at any time without giving any reason. All volunteers gave written consent to the analysis of their milk samples and anonymous publication of the resulting data. The Ethical Committee of the Medical Faculty, University Erlangen-Nuremberg, approved the experimental procedures. Each participant was handed a copy of the Soldeum® package instructions and was advised to read it before capsule intake. They were also advised to withdraw from the study if any negative reactions such as medication allergies or interactions with other drugs they were taking were to be expected. Additionally, the volunteers were informed verbally about potential effects of the pharmaceutical preparation on breastfeeding, i.e. the risk of an altered milk flavour and rejection of the milk by the nursling. Accordingly, if this would happen, the mothers were recommended to feed their babies with stored human milk or formula milk products.
The milk donors were between the ages of 29 and 40 years (mean 34 years). During their participation in the study, their breast milk production had to be normal and in excess of their infants' needs, with no breast infections and no overall medical complaints present. Five participants were primiparous, three were multiparous and the breast milk samples were from 19 weeks to 19 months postpartum. For sampling, either electrical or mechanical breast pumps or manual expression techniques were applied, resulting in sample volumes between 10 and 100 mL. The samples were immediately subjected to sample preparation after a maximum storage time of five hours at 7 °C or were stored in a freezer at −20 °C for up to five days.
The participating volunteers were asked to ingest one Soledum® capsule, containing 100 mg 1,8-cineole, and to wait until they themselves or another person began to notice the eucalyptus-like odour on their breath. […] The donors were instructed to keep notes on the dates of capsule intake, first eucalyptus-like odour on their breath and exact sampling time. Unfortunately it was difficult for some mothers to detect the smell on their breath so they expressed the samples after some time without having noticed the smell, or reported having been unsure about the smell. […] Some of the donors repeated the whole experiment and some expressed more than one sample after the capsule intake, resulting in 14 samples in total, from 8 different mothers.
Extracts containing the volatile fraction of the human milk samples were prepared by Solvent Assisted Flavour Evaporation (SAFE) after addition of deuterated 1,8-cineole as internal standard (solution in dichloromethane), followed by 10 min of stirring, then another addition of dichloromethane (50% v/v), and 30 min of stirring. The resulting stable phase was distilled in the SAFE-apparatus at 50 °C and approximately 1x10^−4 mbar. The volatile fraction of the samples was frozen with liquid nitrogen. After thawing, it consisted of two phases, formed by the dichloromethane and by the water out of the milk. The water phase was extracted three times with dichloromethane, and the solvent phases were combined and dried over anhydrous Na2SO4. Finally the sample extracts were concentrated by microdistillation according to Bemelmans at 50 °C to a total volume of 50 to 200 μL.
For GC-MS analyses, an Agilent MSD quadrupole system (GC 7890A with MSD 5975C, Agilent Technologies, Waldbronn, Germany) coupled with a CIS 4C (cooled injection system) and an MPS 2 auto-sampler (Gerstel GmbH & Co. KG, Duisburg, Germany) were used. […]

[4] = sample A-1a (no odour), oral 100 mg 1,8-cineole, values given with (<x) lie beyond calibration range, approximation
[5] = sample A-1b (odour yes), oral 100 mg 1,8-cineole, values given with (<x) are approximations
[6] = sample B-1 (odour yes), oral 100 mg 1,8-cineole, values given with (<x) are approximations
[7] = sample B-2b (odour yes), oral 100 mg 1,8-cineole, values given with (<x) are approximations
[8] = sample B-2c (no odour), oral 100 mg 1,8-cineole
[9] = sample D-2 (odour yes), oral 100 mg 1,8-cineole, values given with (<x) are approximations
[10] = sample E-2 (odour yes), oral 100 mg 1,8-cineole, values given with (<x) are approximations
[11] = sample F (no odour), parent ingested two capsules, values given with (<x) are approximations
[12] = sample F (no odour), two capsules
[13] = sample H (odour yes), oral 100 mg 1,8-cineole, values given with (<x) are approximations

CC12C=CC(CC1)C(C)(C)O2 (stereo not shown) [2,3-dehydro-1,8-cineole, 2,3-Dehydro-1,8-cineole]
Presence in human urine [1]: could not be found
Percentage E1 in single sample (outlier) ([2]; human milk sample B-2a): 100%
Estimated maximum level in human milk (concentration calculated with the last calibration point, in parentheses) ([3]; sample A-1a (no odour)): < 1.26 µg/kg
Absolute concentration in human milk [3, 4]: 0.28 µg/kg
Absolute concentration in human milk [3, 5]: 4.07 µg/kg
Absolute concentration in human milk [3, 6]: 13.65 µg/kg
Absolute concentration in human milk ([3]; sample B-2a (no odour), oral 100 mg 1,8-cineole): 0.07 µg/kg
Absolute concentration in human milk [3, 7]: 2.80 µg/kg
Absolute concentration in human milk [3, 8]: 0.57 µg/kg
Estimated maximum level in human milk (concentration calculated with the last calibration point, in parentheses) ([3]; sample C (no odour)): < 0.88 µg/kg
Absolute concentration in human milk ([3]; sample C (no odour; very weak odour not caused by 1,8-cineole), oral 100 mg 1,8-cineole, values given with (<x) are approximations): 0.73 µg/kg
Estimated maximum level in human milk (concentration calculated with the last calibration point, in parentheses) ([3]; sample D-1 (no odour)): < 0.97 µg/kg
Absolute concentration in human milk ([3]; sample D-1 (no odour), oral 100 mg 1,8-cineole, values given with (<x) are approximations): 0.45 µg/kg
Absolute concentration in human milk [3, 9]: 5.13 µg/kg
Estimated maximum level in human milk (concentration calculated with the last calibration point, in parentheses) ([3]; sample E-1 (no odour)): < 1.21 µg/kg
Absolute concentration in human milk ([3]; sample E-1 (no odour), oral 100 mg 1,8-cineole, values given with (<x) are approximations): 0.19 µg/kg
Absolute concentration in human milk [3, 10]: 9.63 µg/kg
Absolute concentration in human milk [3, 11]: 0.59 µg/kg
Estimated maximum level in human milk (concentration calculated with the last calibration point, in parentheses) [3, 12]: < 2.40 µg/kg
Absolute concentration in human milk ([3]; sample G (odour yes), oral 100 mg 1,8-cineole, values given with (<x) are approximations): 21.24 µg/kg
Absolute concentration in human milk [3, 13]: 37.69 µg/kg

CC12CCC(CC1=O)C(C)(C)O2 (stereo not shown) [2-oxo-1,8-cineole]
Presence in human urine [1]: could not be found
Percentage E2 in single samples (outliers) ([2]; human milk samples B-1, B-2b and B-2c): 100%
Estimated maximum level in human milk (concentration calculated with the last calibration point, in parentheses) ([3]; sample A-1a (no odour)): < 1.57 µg/kg
Absolute concentration in human milk [3, 4]: 0.13 µg/kg
Estimated maximum level in human milk (concentration calculated with the last calibration point, in parentheses) ([3]; sample A-1b (odour yes)): < 1.31 µg/kg
Absolute concentration in human milk [3, 5]: 0.53 µg/kg
Estimated maximum level in human milk (concentration calculated with the last calibration point, in parentheses) ([3]; sample B-1 (odour yes)): < 1.89 µg/kg
Absolute concentration in human milk [3, 6]: 0.91 µg/kg
Estimated maximum level in human milk (concentration calculated with the last calibration point, in parentheses) ([3]; sample B-2b (odour yes)): < 2.37 µg/kg
Absolute concentration in human milk [3, 7]: 0.34 µg/kg
Absolute concentration in human milk [3, 8]: 0.07 µg/kg
Estimated maximum level in human milk (concentration calculated with the last calibration point, in parentheses) ([3]; sample D-2 (odour yes)): < 2.20 µg/kg
Absolute concentration in human milk [3, 9]: 0.85 µg/kg
Estimated maximum level in human milk (concentration calculated with the last calibration point, in parentheses) ([3]; sample E-2 (odour yes)): < 2.03 µg/kg
Absolute concentration in human milk [3, 10]: 1.71 µg/kg
Absolute concentration in human milk [3, 11]: 2.71 µg/kg
Estimated maximum level in human milk (concentration calculated with the last calibration point, in parentheses) [3, 12]: < 3.00 µg/kg
Estimated maximum level in human milk (concentration calculated with the last calibration point, in parentheses) ([3]; sample H (odour yes)): < 2.24 µg/kg
Absolute concentration in human milk [3, 13]: 0.86 µg/kg
